Laboratory results published in ChEMBL document CHEMBL3751729, “Benzamide derivatives and their constrained analogs as histamine H3 receptor antagonists” (Eur J Med Chem, 2016).
Each block holds one compound with its values, some of them ahead of it.

What was measured:
[1] = molecular target: T1, Histamine H3 receptor (Homo sapiens, UniProt Q9Y5N1); assay: Displacement of [3H]R-alpha-methyl histamine from recombinant human H3 receptor
[2] = molecular target: Cytochrome P450 2D6 (Homo sapiens, UniProt P10635); assay: Inhibition of human CYP2D6 after 12 mins by LC-MS/MS analysis; type: ADME
[3] = molecular target: Cytochrome P450 3A4 (Homo sapiens, UniProt P08684); assay: Inhibition of human CYP3A4 after 2 mins by LC-MS/MS analysis; type: ADME
[4] = molecular target: T1, Histamine H3 receptor; assay: Binding affinity to recombinant human H3 receptor
[5] = molecular target: T1, Histamine H3 receptor; assay: Antagonist activity at recombinant human H3 receptor expressed on CHO-K1 cells assessed as cAMP level by luciferase gene reporter assay; type: functional, cell-based
[6] = system: Rattus norvegicus; assay: In vivo receptor occupancy at histamine H3 receptor in po dosed Wistar rat by LC-MS/MS analysis; type: functional
[7] = molecular target: T2, hERG (KCNH2) (Homo sapiens, UniProt Q12809); assay: Inhibition of human ERG at 10 uM by scintillation counting method
[8] = Metabolic stability in rat liver microsomes assessed as compound metabolized after 30 mins by LC-MS/MS analysis; type: ADME; details: read-out: Drug metabolism
[9] = Plasma concentration in Wistar rat at 3 mg/kg, po after 1 hr by LC-MS/MS analysis; type: ADME, organism-based
[10] = Metabolic stability in human liver microsomes assessed as compound metabolized after 30 mins by LC-MS/MS analysis; type: ADME; details: read-out: Drug metabolism
[11] = system: Rattus norvegicus; assay: Oral bioavailability in fasted Wistar rat at 3 mg/kg by LC-MS/MS analysis; type: ADME, organism-based; details: in vivo
[12] = molecular target: T2, hERG (KCNH2); assay: Inhibition of human ERG at 1 uM by scintillation counting method
[13] = Ratio of drug level in brain to blood in Wistar rat at 10 mg/kg, po by LC-MS/MS analysis
[14] = Cmax in fasted Wistar rat at 3 mg/kg, po by LC-MS/MS analysis; type: ADME, organism-based; design: dose 3 mg/kg, route oral; details: in vivo
[15] = system: Rattus norvegicus; assay: Apparent volume of distribution in fasted Wistar rat at 3 mg/kg, iv by LC-MS/MS analysis; type: ADME, organism-based; details: in vivo
[16] = Plasma concentration in Wistar rat at 10 mg/kg, po after 1 hr by LC-MS/MS analysis; type: ADME, organism-based
[17] = Drug uptake in Wistar rat brain at 30 mg/kg, po after 1 hr by LC-MS/MS analysis; type: ADME, organism-based; details: read-out: Drug uptake
[18] = Plasma concentration in Wistar rat at 30 mg/kg, po after 1 hr by LC-MS/MS analysis; type: ADME, organism-based
[19] = system: Rattus norvegicus; assay: AUCt in fasted Wistar rat at 3 mg/kg, po by LC-MS/MS analysis; type: ADME, organism-based; details: in vivo
[20] = Drug uptake in Wistar rat brain at 10 mg/kg, po after 1 hr by LC-MS/MS analysis; type: ADME, organism-based; details: read-out: Drug uptake
[21] = Drug uptake in Wistar rat brain at 3 mg/kg, po after 1 hr by LC-MS/MS analysis; type: ADME, organism-based; details: read-out: Drug uptake
[22] = system: Rattus norvegicus; assay: Half life in fasted Wistar rat at 5 mg/kg, iv by LC-MS/MS analysis; type: ADME, organism-based; details: in vivo
[23] = Cmax in fasted Wistar rat at 5 mg/kg, po by LC-MS/MS analysis; type: ADME, organism-based; design: dose 5 mg/kg, route oral; details: in vivo
[24] = system: Rattus norvegicus; assay: Oral bioavailability in fasted Wistar rat at 5 mg/kg by LC-MS/MS analysis; type: ADME, organism-based; details: in vivo
[25] = system: Rattus norvegicus; assay: AUCt in fasted Wistar rat at 5 mg/kg, po by LC-MS/MS analysis; type: ADME, organism-based; details: in vivo

T1 sequence (Q9Y5N1 whole entry): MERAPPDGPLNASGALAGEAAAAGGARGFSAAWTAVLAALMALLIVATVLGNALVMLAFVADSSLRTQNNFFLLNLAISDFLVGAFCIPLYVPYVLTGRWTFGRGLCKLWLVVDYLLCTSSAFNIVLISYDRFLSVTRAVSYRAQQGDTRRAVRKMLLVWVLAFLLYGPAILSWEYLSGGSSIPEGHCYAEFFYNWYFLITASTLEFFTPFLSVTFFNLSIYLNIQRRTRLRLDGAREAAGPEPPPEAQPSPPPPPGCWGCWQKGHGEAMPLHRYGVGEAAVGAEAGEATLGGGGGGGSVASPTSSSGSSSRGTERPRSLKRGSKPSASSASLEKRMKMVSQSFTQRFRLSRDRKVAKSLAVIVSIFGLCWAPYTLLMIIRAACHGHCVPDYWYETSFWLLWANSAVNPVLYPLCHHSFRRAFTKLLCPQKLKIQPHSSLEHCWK
T2 sequence (Q12809 whole entry): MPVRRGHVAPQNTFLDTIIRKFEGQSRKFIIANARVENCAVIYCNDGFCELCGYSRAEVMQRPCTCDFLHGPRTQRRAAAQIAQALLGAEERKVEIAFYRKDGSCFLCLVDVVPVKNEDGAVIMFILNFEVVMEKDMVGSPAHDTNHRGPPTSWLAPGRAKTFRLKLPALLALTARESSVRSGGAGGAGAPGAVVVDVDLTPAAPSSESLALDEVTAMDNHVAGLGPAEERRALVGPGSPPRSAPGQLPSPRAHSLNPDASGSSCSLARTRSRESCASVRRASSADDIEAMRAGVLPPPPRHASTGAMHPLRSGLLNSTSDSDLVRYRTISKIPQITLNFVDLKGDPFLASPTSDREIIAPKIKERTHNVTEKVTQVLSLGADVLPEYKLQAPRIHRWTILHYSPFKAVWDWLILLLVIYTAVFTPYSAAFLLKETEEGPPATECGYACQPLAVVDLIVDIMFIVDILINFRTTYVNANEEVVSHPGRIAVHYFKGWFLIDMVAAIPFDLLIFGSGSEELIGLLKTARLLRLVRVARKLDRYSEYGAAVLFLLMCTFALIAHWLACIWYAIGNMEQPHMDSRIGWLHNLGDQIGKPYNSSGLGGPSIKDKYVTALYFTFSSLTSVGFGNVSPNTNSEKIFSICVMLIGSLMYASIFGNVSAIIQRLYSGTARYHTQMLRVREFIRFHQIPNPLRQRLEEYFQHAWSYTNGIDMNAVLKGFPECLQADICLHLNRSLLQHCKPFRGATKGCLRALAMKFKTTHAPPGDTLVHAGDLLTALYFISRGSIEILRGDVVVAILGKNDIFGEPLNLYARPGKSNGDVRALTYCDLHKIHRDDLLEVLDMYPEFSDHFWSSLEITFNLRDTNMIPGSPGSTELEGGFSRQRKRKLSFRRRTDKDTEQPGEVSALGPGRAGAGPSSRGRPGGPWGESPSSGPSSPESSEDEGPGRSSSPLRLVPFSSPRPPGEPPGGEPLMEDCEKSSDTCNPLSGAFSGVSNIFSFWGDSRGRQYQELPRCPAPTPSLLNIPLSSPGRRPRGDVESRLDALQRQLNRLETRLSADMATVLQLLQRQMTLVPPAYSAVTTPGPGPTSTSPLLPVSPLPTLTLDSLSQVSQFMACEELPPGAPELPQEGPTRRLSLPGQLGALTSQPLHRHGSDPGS
Sequence of Cytochrome P450 2D6 (P10635 whole entry): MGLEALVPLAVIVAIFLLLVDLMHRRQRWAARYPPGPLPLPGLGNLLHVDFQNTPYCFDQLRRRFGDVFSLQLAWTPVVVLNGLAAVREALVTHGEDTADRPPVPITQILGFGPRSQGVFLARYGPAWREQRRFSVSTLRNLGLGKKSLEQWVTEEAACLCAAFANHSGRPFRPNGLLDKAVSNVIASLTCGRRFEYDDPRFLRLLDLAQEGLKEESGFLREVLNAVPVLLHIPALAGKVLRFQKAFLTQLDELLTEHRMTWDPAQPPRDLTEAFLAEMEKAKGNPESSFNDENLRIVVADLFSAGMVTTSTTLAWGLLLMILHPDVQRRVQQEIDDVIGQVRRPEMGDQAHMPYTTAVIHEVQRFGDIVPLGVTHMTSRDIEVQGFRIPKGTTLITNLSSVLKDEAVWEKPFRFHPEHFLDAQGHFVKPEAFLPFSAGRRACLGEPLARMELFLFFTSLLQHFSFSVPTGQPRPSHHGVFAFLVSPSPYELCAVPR
Sequence of Cytochrome P450 3A4 (P08684 whole entry): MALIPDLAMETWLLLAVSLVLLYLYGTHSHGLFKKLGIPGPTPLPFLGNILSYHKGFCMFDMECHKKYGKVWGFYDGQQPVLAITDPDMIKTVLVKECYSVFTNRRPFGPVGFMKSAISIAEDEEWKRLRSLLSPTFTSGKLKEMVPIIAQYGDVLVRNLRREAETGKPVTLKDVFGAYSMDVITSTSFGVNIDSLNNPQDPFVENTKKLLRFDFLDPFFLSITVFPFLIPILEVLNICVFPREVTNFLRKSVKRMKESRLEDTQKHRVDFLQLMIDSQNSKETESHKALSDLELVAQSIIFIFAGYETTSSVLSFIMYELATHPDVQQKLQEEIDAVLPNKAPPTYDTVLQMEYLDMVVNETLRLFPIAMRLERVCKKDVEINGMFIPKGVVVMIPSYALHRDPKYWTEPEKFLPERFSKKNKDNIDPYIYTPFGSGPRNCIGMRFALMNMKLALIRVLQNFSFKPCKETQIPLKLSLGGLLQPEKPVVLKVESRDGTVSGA

SMILES: CC(C)N1CCC(Oc2ccc3c(c2)CCN(C2CCN(C4CCC4)CC2)C3=O)CC1
- Ki [1]: 1.8 nM

SMILES: CC(C)N1CCC(NC(=O)c2ccc(OC3CCOCC3)cc2)C1 (racemic)
- Ki [1]: 103 nM

SMILES: CC(C)N1CCC(Oc2ccc3c(c2)CCN(C2CCN(C(C)C)C2)C3=O)CC1 (racemic)
- Ki [1]: 2.1 nM

SMILES: CC(C)N1CCC(NC(=O)c2ccc(OC3CCN(C4CCCC4)CC3)cc2)C1 (racemic)
- Ki [1]: 8.6 nM

SMILES: CC(C)N1CCC(Oc2ccc3c(c2)CCN(C2CCN(C(C)C)C2)C3=O)CC1 (stereo not drawn)
- Ki [4]: 0.1 nM
- IC50 [5]: 14.3 nM

SMILES: CC(C)N1CCC(Oc2ccc(C(=O)NC3CCN(C4CCC4)C3)c(Cl)c2)CC1 (racemic)
- Ki [1]: 18.4 nM

SMILES: CC(C)N1CCC(Oc2ccc(C(=O)NC3CCN(C(C)C)C3)cc2)CC1 (racemic)
- Ki [1]: 5.7 nM

SMILES: Cc1cc(C(=O)NC2CCN(C3CCC3)C2)ccc1OC1CCN(C(C)C)CC1 (racemic)
- Ki [1]: 384 nM

SMILES: CC(C)N1CCC(Oc2ccc3c(c2)CCN(C2CCN(C4CCC4)C2)C3=O)CC1 (racemic)
- Ki [1]: 1.2 nM

SMILES: Cc1cc(C(=O)NC2CCN(C(C)C)C2)ccc1OC1CCN(C(C)C)CC1 (racemic)
- Ki [1]: 1360 nM

SMILES: CC(C)N1CCC(Oc2ccc(C(=O)NC3CCN(C(C)C)C3)cc2)CC1 (stereo not drawn)
- t1/2 [22]: 11.67 h
- Ki [4]: 0.9 nM
- IC50 [2]: > 45000 nM
- metabolised at 0.5 h [8]: 4%
- Cmax [23]: 122 ng/mL
- metabolised at 0.5 h [10]: 12%
- IC50 [3]: > 45000 nM
- inhibition at 1 µM [12]: 21%
- IC50 [5]: 324 nM
- F [24]: 75%
- AUCt [25]: 444 ng·h/mL

SMILES: O=C1CCCN1c1ccc(Oc2ccc3c(c2)CCN(C2CCC2)CC3)nc1 [GSK239512]
- Ki [4]: 10 nM

SMILES: CC(C)CN1CCC(NC(=O)c2ccc(OC3CCN(C(C)C)CC3)cc2)C1 (racemic)
- Ki [1]: 1 nM

SMILES: CC(C)CN1CCC(NC(=O)c2ccc(OC3CCN(C(C)C)CC3)cc2)C1 (stereo not drawn)
- t1/2 [22]: 17.51 h
- Ki [4]: 1.2 nM
- inhibition at 10 µM [7]: 35%
- metabolised at 0.5 h [8]: 8%
- Cmax [23]: 18 ng/mL
- metabolised at 0.5 h [10]: 18%
- IC50 [5]: 459 nM
- F [24]: 81%
- AUCt [25]: 281 ng·h/mL

SMILES: Cc1cc(OC2CCN(C(C)C)CC2)ccc1C(=O)NC1CCN(C2CCC2)C1 (racemic)
- Ki [1]: 9.2 nM

SMILES: CC(C)N1CCC(NC(=O)c2ccc(OC3CCN(C4CCCC4)CC3)cc2)C1 (stereo not drawn)
- Ki [4]: 1 nM
- IC50 [5]: 274 nM

SMILES: CC(C)N1CCC(Oc2ccc(C(=O)NC3CCN(C4CCC4)C3)cc2F)CC1 (racemic)
- Ki [1]: 7.3 nM

SMILES: CC(C)N1CCC(Oc2ccc(C(=O)NC3CCN(C4CCC4)C3)cc2)CC1 (racemic)
- Ki [1]: 2.5 nM

The next lines start with results.

- Ki [1]: 6.7 nM
SMILES: O=C(NC1CCN(C2CCC2)CC1)c1ccc(OC2CCN(C3CCC3)CC2)cc1Cl

- Ki [1]: 11.4 nM
SMILES: CC(C)N1CCC(NC(=O)c2ccc(OC3CCN(C(C)C)CC3)cc2F)CC1

- Ki [1]: 7 nM
SMILES: CC(C)N1CCC(NC(=O)c2ccc(OC3CCN(C4CCC4)CC3)cc2Cl)CC1

- IC50 [2]: > 30000 nM
- IC50 [3]: > 30000 nM
SMILES: CC(C)N1CCC(NC(=O)c2ccc(OC3CCN(C4CCC4)CC3)cc2)C1 (stereo not drawn)

- Ki [1]: 10.5 nM
SMILES: CC(C)N1CCC(Oc2ccc(C(=O)NC3CCN(C4CCC4)CC3)c(F)c2)CC1

- Ki [4]: 0.03 nM
- metabolised at 0.5 h [8]: 6%
- concentration at 1 h [9]: 3.7 ng/mL
- metabolised at 0.5 h [10]: 10%
- F [11]: 27%
- Kp [13]: 0.54
- Cmax [14]: 80 ng/mL
- IC50 [5]: 4.8 nM
- Vz [15]: 13 L/kg
- concentration at 1 h [16]: 15.7 ng/mL
- concentration at 1 h [17]: 765 ng/g
- concentration at 1 h [18]: 76.3 ng/mL
- AUCt [19]: 1429 ng·h/mL
- concentration at 1 h [20]: 175 ng/g
- concentration at 1 h [21]: 28.5 ng/g
- Ki [1]: 0.8 nM
SMILES: O=C1c2ccc(OC3CCN(C4CCC4)CC3)cc2CCN1C1CCN(C2CCC2)CC1
- Activity [6]: Dose-dependent effect
- ED50 [6]: 15.5 mg/kg
- inhibition at 10 µM [7]: 26%
- inhibition at 1 µM [12]: 23%

- Ki [1]: 8.3 nM
SMILES: CC(C)N1CCC(NC(=O)c2ccc(OC3CCN(C(C)C)CC3)cc2)CC1

- Ki [1]: 5.7 nM
SMILES: CC(C)N1CCC(Oc2ccc(C(=O)NC3CCN(C4CCC4)C3)c(F)c2)CC1 (racemic)

- Ki [1]: 1.6 nM
SMILES: CC(C)N1CCC(NC(=O)c2ccc(OC3CCN(C4CCC4)CC3)cc2)CC1

- Ki [1]: 26.9 nM
SMILES: CC(C)N1CCC(NC(=O)c2ccc(OC3CCN(C4CCC4)CC3)cc2)C1 (racemic)
